From patent US11702422B2, “Imidazopyridazines as modulators of IL-17” (Janssen Pharmaceutica NV, priority 2020, dated 2023)

What was measured:
[1] = molecular target: IL-17A(FLAG-Tagged): IL-17RA(His-Tagged) (Homo sapiens, UniProt Q16552, K93Q); experiment: IL-17A(FLAG-Tagged): IL-17RA(His-Tagged) Binding Disruption Eu-HTRF Assay; conditions: IL-17A/IL-17RA binding disruption, simple average if tested more than once
Outline: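 IC50 comes from a one-site competition fit of the HTRF 665/620 nm ratio. Compound dilutions (2-fold, 22 points) were held 1 h rt with FLAG-tagged IL-17A dimer, then His-tagged IL-17RA plus Eu-cryptate anti-FLAG and D2 anti-His antibodies were added for 2 h rt.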

[2] = tested on: IL-17A-induced G-CSF production in human normal keratinocyte (NHK); experiment: NHK Assay: IL-17A-induced G-CSF production in human normal keratinocytes; assay type: cell-based; conditions: Homo sapiens, Keratinocyte, 24 h, adult normal human keratinocytes, IL-17A 5 ng/mL, simple average if tested more than once
Outline: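 Adult normal human keratinocytes were seeded at 3000-4000 cells/well. Recombinant human IL-17A was pre-incubated 1 h at rt with titrated compound, then added to cells (final 5 ng/mL IL-17A, 0.2% DMSO, 5% FBS) for 24 h at 37° C. Supernatant G-CSF was measured by HTRF against a standard curve to give IC50.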

Chain of UniProt Q16552 (Q16552 with tags, fused parts or gaps K93Q): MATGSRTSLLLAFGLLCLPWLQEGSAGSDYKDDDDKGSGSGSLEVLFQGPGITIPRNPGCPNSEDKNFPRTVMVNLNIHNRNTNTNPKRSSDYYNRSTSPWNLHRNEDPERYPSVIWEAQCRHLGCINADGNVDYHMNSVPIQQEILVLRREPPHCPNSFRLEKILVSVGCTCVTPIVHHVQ

IC50 [1] [nM] | SMILES | IC50 [2] [nM]
350 | CCc1ccccc1C(=O)N[C@H](c1cn2ncc([C@H](NC(=O)CCC(F)(F)F)C3CC3)cc2n1)C1CCC(F)(F)CC1 [Example 41, N—((S)-(7-((R)-Cyclopropyl(4,4,4-trifluorobutanamido)methyl)imidazo[1,2-b]pyridazin-2-yl)(4,4-difluorocyclohexyl)methyl)-2-ethylbenzamide] | 2000
410 | O=C(CCC(F)(F)F)N[C@@H](c1cnn2cc([C@@H](NC(=O)c3ccccc3Cl)C3CCC(F)(F)CC3)nc2c1)C1CC1 [Example 42, 2-Chloro-N—((S)-(7-((R)-cyclopropyl(4,4,4-trifluorobutanamido)methyl)imidazo[1,2-b]pyridazin-2-yl)(4,4-difluorocyclohexyl)methyl)benzamide] | 2200
740 | O=C(CCC(F)(F)F)N[C@@H](c1cnn2cc([C@@H](NC(=O)C3CC34CC4)C3CCC(F)(F)CC3)nc2c1)C1CC1 (stereo partly drawn) [Example 44, N—((S)-(7-((R)-Cyclopropyl(4,4,4-trifluorobutanamido)methyl)imidazo[1,2-b]pyridazin-2-yl)(4,4-difluorocyclohexyl)methyl)spiro[2.2]pentane-1-carboxamide] | 1400

Second part, the compound before the results:

SMILES | IC50 [1] [nM] | IC50 [2] [nM]
O=C(CCC(F)(F)F)N[C@@H](c1cnn2cc([C@@H](NC(=O)c3cnn(CCOC(F)F)n3)C3CCC(F)(F)CC3)nc2c1)C1CC1 [Example 35, N—((S)-(7-((R)-Cyclopropyl(4,4,4-trifluorobutanamido)methyl)imidazo[1,2-b]pyridazin-2-yl)(4,4-difluorocyclohexyl)methyl)-2-(2-(difluoromethoxy)ethyl)-2H-1,2,3-triazole-4-carboxamide] | 120 | 200
O=C(CCC(F)(F)F)N[C@@H](c1cnn2cc([C@@H](NC(=O)c3cnn(CCOC(F)(F)F)c3)C3CCC(F)(F)CC3)nc2c1)C1CC1 [Example 36, N—((S)-(7-((R)-Cyclopropyl(4,4,4-trifluorobutanamido)methyl)imidazo[1,2-b]pyridazin-2-yl)(4,4-difluorocyclohexyl)methyl)-1-(2-(trifluoromethoxy)ethyl)-1H-pyrazole-4-carboxamide] | 140 | 120
O=C(CCC(F)(F)F)N[C@@H](c1cnn2cc([C@@H](NC(=O)c3cnn(CCOC(F)F)c3)C3CCC(F)(F)CC3)nc2c1)C1CC1 [Example 37, N—((S)-(7-((R)-Cyclopropyl(4,4,4-trifluorobutanamido)methyl)imidazo[1,2-b]pyridazin-2-yl)(4,4-difluorocyclohexyl)methyl)-1-(2-(difluoromethoxy)ethyl)-1H-pyrazole-4-carboxamide] | 230 | 630
O=C(CCC(F)(F)F)N[C@@H](c1cnn2cc([C@@H](NC(=O)c3ncnn3CCC(F)(F)F)C3CCC(F)(F)CC3)nc2c1)C1CC1 [Example 38, N—((S)-(7-((R)-Cyclopropyl(4,4,4-trifluorobutanamido)methyl)imidazo[1,2-b]pyridazin-2-yl)(4,4-difluorocyclohexyl)methyl)-1-(3,3,3-trifluoropropyl)-1H-1,2,4-triazole-5-carboxamide] | 78 | 400
O=C(CCC(F)(F)F)N[C@@H](c1cnn2cc([C@@H](NC(=O)c3ncnn3CC3CC3)C3CCC(F)(F)CC3)nc2c1)C1CC1 [Example 39, N—((S)-(7-((R)-Cyclopropyl(4,4,4-trifluorobutanamido)methyl)imidazo[1,2-b]pyridazin-2-yl)(4,4-difluorocyclohexyl)methyl)-1-(cyclopropylmethyl)-1H-1,2,4-triazole-5-carboxamide] | 110 | 430
Cc1ccccc1C(=O)N[C@H](c1cn2ncc([C@H](NC(=O)CCC(F)(F)F)C3CC3)cc2n1)C1CCC(F)(F)CC1 [Example 40, N—((S)-(7-((R)-Cyclopropyl(4,4,4-trifluorobutanamido)methyl)imidazo[1,2-b]pyridazine-2-yl)(4,4-difluorocyclohexyl)methyl)-2-methylbenzamide] | 410 | 1200
